Measured values published in ChEMBL document CHEMBL3046478, “Evaluating anti-Toxoplasma gondii activity of new serie of phenylsemicarbazone and phenylthiosemicarbazones in vitro” (Med Chem Res, 2013).
Calls of active or inactive are those of the source. The calls are words filed in the database; no cut-off is given here.

Experiments:
Toxoplasma gondii [1] = assay: Antiparasitic activity against Toxoplasma gondii RH tachyzoites infected African green monkey Vero cells assessed as mortality treated 24 hr after parasite infection measured after 24 hr by Giemsa staining based microscopic analysis; format: functional; settings: read-out: LD50 (the source's name)
[2] = Cytotoxicity against Chlorocebus aethiops (African green monkey) Vero cells infected with Toxoplasma gondii RH tachyzoites assessed as cell death and morphological alterations after 24 hr by microscopic analysis; format: cell-based; settings: chlorocebus sabaeus, read-out: LD50
Vero [3] = assay: Cytotoxicity against Chlorocebus aethiops (African green monkey) Vero cells infected with Toxoplasma gondii RH tachyzoites assessed as cell death and morphological alterations at 0.01 mM after 24 hr by microscopic analysis; format: cell-based; settings: chlorocebus sabaeus, 10 µM
Vero [4] = assay: Cytotoxicity against Chlorocebus aethiops (African green monkey) Vero cells infected with Toxoplasma gondii RH tachyzoites assessed as cell death and morphological alterations at 0.5 mM after 24 hr by microscopic analysis; format: cell-based; settings: chlorocebus sabaeus, 500 µM
Vero [5] = assay: Cytotoxicity against Chlorocebus aethiops (African green monkey) Vero cells infected with Toxoplasma gondii RH tachyzoites assessed as cell death and morphological alterations at 1 mM after 24 hr by microscopic analysis; format: cell-based; settings: chlorocebus sabaeus, 1000 µM
Toxoplasma gondii [6] = assay: Antiparasitic activity against Toxoplasma gondii RH tachyzoites infected African green monkey Vero cells assessed as reduction in number of intracellular parasites at 0.1 mM treated 24 hr after parasite infection measured after 24 hr by Giemsa staining based microscopic analysis; format: functional, organism-based
Toxoplasma gondii [7] = assay: Antiparasitic activity against Toxoplasma gondii RH tachyzoites infected African green monkey Vero cells assessed as reduction in number of intracellular parasites at 0.01 mM treated 24 hr after parasite infection measured after 24 hr by Giemsa staining based microscopic analysis; format: functional
Toxoplasma gondii [8] = assay: Antiparasitic activity against Toxoplasma gondii RH tachyzoites infected African green monkey Vero cells assessed as reduction in number of intracellular parasites at 1 mM treated 24 hr after parasite infection measured after 24 hr by Giemsa staining based microscopic analysis; format: functional, organism-based
Toxoplasma gondii [9] = assay: Antiparasitic activity against Toxoplasma gondii RH tachyzoites infected African green monkey Vero cells assessed as reduction in number of infected Vero cells at 0.01 mM treated 24 hr after parasite infection measured after 24 hr by Giemsa staining based microscopic analysis; format: functional

Row | Compound | LC50 (Toxoplasma gondii [1]) | CC50 at 24 h [2] | Activity (Vero [3]) | Activity (Vero [4]) | Activity (Vero [5]) | inhibition (Toxoplasma gondii [6]) | inhibition at 10 µM (Toxoplasma gondii [7]) | inhibition (Toxoplasma gondii [8]) | inhibition at 10 µM (Toxoplasma gondii [9])
1 | Nc1ccc(S(=O)(=O)Nc2ncccn2)cc1 [SULFADIAZINE] | 6000 µM | > 10000 µM |  |  |  |  |  |  | 
2 | O=C(N/N=C/c1ccc(O)c(O)c1O)Nc1ccccc1 | 200 µM | 300 µM | Non-toxic | Toxic | Toxic |  |  |  | 
3 | O=C(N/N=C/c1cc(O)c(O)cc1O)Nc1ccccc1 | 6 µM | 300 µM | Non-toxic | Toxic | Toxic | Active | 82% |  | 
4 | Oc1ccc(/C=N/NC(=S)Nc2ccccc2)c(O)c1O | 30 µM | 400 µM | Non-toxic | Toxic | Toxic |  |  |  | 
5 | COc1cc(O)cc(OC)c1/C=N/C(=O)NNc1ccccc1 | 600 µM | > 1000 µM | Non-toxic |  |  |  |  | Active | 
6 | Oc1cc(O)c(/C=N/NC(=S)Nc2ccccc2)cc1O | 80 µM | 300 µM | Non-toxic | Toxic | Toxic |  |  |  | 
7 | COc1cc(O)cc(OC)c1/C=N/NC(=S)Nc1ccccc1 | 200 µM | 700 µM | Non-toxic | 50% | 100% |  |  |  | 
8 | COc1cc(O)cc(OC)c1/C=N/NC(=O)Nc1ccccc1 | 500 µM | > 1000 µM | Non-toxic |  |  |  |  |  | 
9 | O=C(/N=C/c1cc(O)c(O)cc1O)NNc1ccccc1 | 300 µM | 400 µM | Non-toxic | Toxic | Toxic |  |  |  | 
10 | O=C(/N=C/c1ccc(O)c(O)c1O)NNc1ccccc1 | 20 µM | 70 µM | Non-toxic | Toxic | Toxic |  |  |  | 50%
